# Where “and” joins values, the source holds several entries; their conditions need not be identical. Identical values can stand only once. Counter-ions that a name gives are not always drawn. Like-named read-outs stand apart in the source and are kept apart here.
# Experiments:
# [1] = system: TAT-mediated transactivation of HIV transcription (HIV-1 LTR promoter); experiment: SEAP assay of TAT-mediated transactivation (antiviral activity); type: cell-based, human immunodeficiency virus (HIV); settings: for EC50: Human immunodeficiency virus 1, COS-7, 48 h, read-out: SEAP EC50
# Procedure: Antiviral activity is determined using a SEAP (SEcreted Alkaline Phosphatase) assay, in which cells are co-transfected with SEAP and TAT plasmids. TAT is a transactivator, human immunodeficiency virus (HIV) gene expression and is one of the two or more necessary viral regulatory factors (TAT and REV) for HIV gene expression. TAT acts iv binding to the TAR RNA element and activating transcription from the long terminal repeat (LTR) promoter. […] Previous studies have shown that TAT mediates reduction of antibody-dependent T cell proliferation, contributing substantially to the failure of the immune response. TAT also directly stimulates Kaposi's cell growth.
# Since TAT has no apparent cellular homologs, this strong positive regulator has become an attractive target for the development of anti-AIDS drugs. In contrast to currently available HIV reverse transcriptase inhibitors (AZT, DDI) or potential protease inhibitors that prevent new rounds of infection, an inhibitor which suppresses viral gene TAT regulated expression of integrated proviral DNA will arrest the virus at an early stage (Hsu et al., Science 254:1799-1802, 1991). Efforts aimed at the elucidation of factors which control gene expression at transcriptional and post-transcriptional levels in host eukaryotes have recently made possible quantitative assessment of TAT function (Sim, Ann. N.Y. Acad. Sci. 616: 64-70, 1990). To screen for inhibitors for TAT regulated transactivation (TAT-TRS), the SEAP reporter gene is put under the control of HIV-1 LTR promoter in the plasmid pBC12/HIV/SEAP. The TAT-coded activity is supplied by a second plasmid construct pBC12/CMV/t2. Transient co-transfection of COS-7 cells with these two plasmids leads to secretion of alkaline phosphatase into the culture medium which is analyzed by a simple colorimetric assay (Berger et al., Gene 66: 1-10, 1988). […]
# In the SEAP assay, an inhibitor should cause reduction of SEAP reporter gene expression via transactivation of the HIV-1 LTR promoter by TAT protein (TAT-TRS). […] SEAP is detected colorimetrically by the para-nitrophenyl phosphate substrate at 405 nm. […] The cells are analyzed by the MTT assay to compare cytotoxicity to SEAP inhibition. […]
# COS-7 (green monkey kidney) cells were co-transfected using Fugene 6 reagent (Roche Applied Science, Cat. No. 11815091001, Indianapolis, Ind., USA) with two plasmids: pHIVSEAP (SEAP expression vector under the control of the HIV LTR promoter) and pCTAT (HIV TAT transcription factor expression vector under the control of a CMV (cytomegalovirus) promoter). After test compound treatment for 48 hours, samples were analyzed for […] at 405 nm after addition of the p-nitrophenyl phosphate substrate. The percentage of SEAP activity inhibition was calculated in relation to the placebo control.
# A549 (lung carcinoma) = experiment: MTS cell viability assay, A549; type: cell-based; settings: Homo sapiens
# Excerpt: (§1) Studies performed regarding cytotoxicity included the well-known MTS, Trypan Blue and MTT protocols. The MTS studies were done using the CellTiter 96®AQueous One Solution Cell Proliferation Assay (Promega Corporation, Madison, Wis. USA). Metabolically active, namely viable, cells turn MTS, a tetrazolium compound (3-(4,5-dimethylthiazol-2-yl)-5-(3-carboxymethoxyphenyl)-2-(4-sulfophenyl)-2H-tetrazolium, inner salt) into colored formazan, which is soluble in tissue culture medium. The measurement of the absorbance of the formazan is read at 490 nm. The ready to use reagent is added directly to the cells in media in 96-well plates, incubated 1-4 hours and the results are recorded by the plate reader. The IC50 is estimated by graphing the gathered data. The IC50 is the concentration of the tested material that inhibits 50% of growth or viability of the tested material compared to a control.
# (§2) Three cell lines obtained from ATCC and maintained as directed by ATCC were tested: HeLa (cervical adenocarcinoma), A549 (lung carcinoma), and COS-7 (SV40 transformed monkey kidney). Studies of these cell lines are considered to be indicative of the effect of tested substances on mammalian, including human, diseases.
# (§3) All compounds were dissolved in DMSO and DMSO is used as the placebo. The samples were first dissolved into 10 mM dilutions in DMSO and then diluted further to 5, 1, 0.5, 0.1, 0.05, and 0.01 mM solutions. These solutions were added to the media at a 1% concentration (1 μl to 100 μl media) to treat the cells with 100, 50, 10, 5, 1, 0.5, and 0.1 μM of the compound. […] Solutions were checked before use for precipitation, especially the 10 mM solutions. If there was precipitation, they were warmed 65° C. and added to warmed media.
# (§4) Wells on a 96-well plate were seeded with 1.5-8×10^4 cells in 100 μl media and incubated overnight. The outside wells of the plate were filled with 200 μl sterile, deionized (DI) water to curb media evaporation. After 24 hours, test chemicals were prepared in media at a concentration of 1% media volume. The test sample media were added, mixing with pipette before adding 100 μl per well. Media was added to the “Media Only” wells. The well plate and its contents were incubated for 24-72 hours, depending on the study conducted. On the thy of the MTS assay, the MTS reagent was removed from the refrigerator and brought to room temperature. Using the multichannel pipette, 20 μl of the MTS reagent was added to each well and incubated for one to four hours. The plate was read at 490 nm with a reference wavelength of 690 nm after one hour in the incubator thereafter until the blank wells were at about 0.2 OD. The results were then scanned into a Microsoft® Excel® template designed to perform all necessary calculations whim data are entered. The data were checked for statistical errors; data points that are within 10% of the mean of the data points for that group were included. The average of the blanks (“Media Only”) were subtracted and the data were inserted into a chart that represents growth response, treated/untreated.
# [2] = system: HeLa (cervical adenocarcinoma); experiment: MTS cell viability assay, HeLa; type: cell-based; settings: read-out: HeLa IC50
# Excerpt: as §1, §2, §3, §4
# MCP-1 = MCP-1 protein production in TNF-α-treated primary human keratinocytes; type: cell-based
# Procedure: Anti-inflammatory activity was determined based on the effect of tested compounds on primary human keratinocytes (PHKs). PHKs play an important role in inflammatory processes, synthesizing a number of cytokines, adhesion molecules and growth factors. Studies were conducted to determine whether tested compounds could inhibit keratinocytes to prevent or reduce production of interferon gamma (IFN-γ), interleukin-8 (IL-8), tumor necrosis factor alpha (TNF-α), granulocyte/macrophage colony-stimulating factor (GM-CSF), intercellular adhesion molecule-1 (ICAM-1, also known as CD54) and monocyte chemotactic protein-1 (MCP-1). PHKs are first treated with TNF-α to induce a pro-inflammatory state and release of pro-inflammatory cytokines. Specific cytokines are then assayed following manufacturer's instructions using R&D Systems. Inc.'s protein assays (Quantikine ELISA kits; Catalog Nos. DCP00 for MCP-1 kit, DCM00 for GM-CSF kit, and DIF50 for IFN-γ).
# Anti-inflammatory activity of several of the compounds of the previously described working examples was determined based on the effect of tested compounds on primary human keratinocytes (PHKs) as described above and following the manufacturer's instructions for the various kits used in the studies. While these studies more typically are used mostly for anti-inflammatory investigations, they can also apply to vascular diseases, since the results in keratinocytes may be extrapolated to vascular endothelium.
# Only MCP-1 data with PHKs is dose-dependent, so an IC50 for MCP-1 can be calculated, but not for the other cytokines.
# COS-7 cells = experiment: MTT cytotoxicity assay in COS-7 cells (run with SEAP); type: cell-based, green monkey; settings: COS-7 test cells of the SEAP assay
# Procedure: The MTT assay is a colorimetric method for determining the number of viable cells. Metabolically active cells turn the MIT reagent, (3-(4,5-dimethylthiazol-2-yl)-2,5-diphenyltetrazolium bromide, into purple-colored formazan crystals that are solubilized in dimethyl sulfoxide (DMSO). The MTT reagent is added to MTT (colorless) media. The media is added to the cells and they are incubated for 4 hours. DMSO is added to the cells and mixed. The colored solutions are then read at 540 nm and corrected at 630 nm. The IC50 is estimated by graphing the gathered data.
# The cells are analyzed by the MTT assay to compare cytotoxicity to SEAP inhibition. The goal is for the drug to inhibit SEAP without being too toxic.
# The MTT assay measures cellular-proliferation and is used to verify that the levels of SEAP activity are not solely due to cytotoxicity. These assays was used in screening for potential drug compound leads as antiviral agents, and particularly, anti-HIV candidates.
# [3] = system: apoptosis of cells based on DNA fragmentation; experiment: TiterTACS DNA fragmentation apoptosis assay; type: cell-based; settings: TiterTACS apoptosis detection
# Procedure: Antiproliferative activity is determined using the TiterTACS® Apoptosis Detection Kit (R&D Systems Inc., Minneapolis, Minn. USA) relating to apoptosis of cells based on DNA fragmentation, and by the ELISA VEGF ([…]) and survivin assays.
# In the DNA fragmentation assay, in situ detection of apoptosis is specifically achieved with TiterTACS® 96-well Apoptosis Detection kit, Catalog No. TA600 (R&D Systems, Inc.). The TiterTACS® assay provides quantification of apoptosis in cultured cells without direct counting of labeled cells using colorimetric detection. Cells are treated with the test compounds, left untreated as experimental negative controls, or treated with TACS nuclease as positive controls. TACS nuclease allows positive controls to be generated for each experimental system: a brief treatment of cells with the TACS nuclease prior to labeling generates DNA breaks in every cell, providing an appropriate positive control specific for the system under study. The TdT enzyme that catalyzes the addition of dNTPs to DNA fragments allows for colorimetric detection of at 450 nm by using a streptavidin-HRP solution followed by the TACS-Sapphire substrate. A high absorbance at 450 nm is indicative of apoptosis in the cells. Treated cells are compared to untreated cells and to nuclease-cleaved cells to assess the extent of apoptosis.
# VEGF = experiment: ELISA VEGF assay (DFO-treated cells); type: cell-based, Human; settings: VEGF released into media by DFO-treated cells, normalized to cell count; read-out: VEGF IC50
# Excerpt: ELISA (Enzyme-Linked ImmunoSorbent Assay) VEGF studies were done following manufacturer's instructions using the Endogen® Human VEGF ELISA kit, Catalog No. […] (Pierce Biotechnology, Inc., Rockford, Ill. USA). Hypoxic conditions are created for the cells by treating them with desferrioxamine (DFO), which chelates iron and causes the cells to secrete VEGF into the media. The supernatant (media) was removed and frozen for testing, and the cells were counted with the Trypan Blue assay so that the results can be normalized to cell count. The VEGF is measured with a sandwich ELISA that captures the protein in media on an antibody-coated microplate, and then uses a biotinylated antibody reagent to detect the protein. Results from a standard curve enable the user to quantify the amount of protein in each sample.
# [4] = read-out: MCP-1 IC50; TNF-α-treated PHK
# [5] = TNF-α-treated PHK; read-out: MCP-1 IC50
SMILES,EC50 [1] [µM],"IC50 (A549 (lung carcinoma); A549, read-out: A549 IC50) [µM]","IC50 ([2]; Homo sapiens, HeLa) [µM]",IC50 (MCP-1; [4]) [µM],IC50 (MCP-1; [5]) [µM],further results
"C[C@H](Cc1ccc(OCCO)c(OCCO)c1)[C@@H](C)Cc1ccc(OCCO)c(OCCO)c1 [Compound I, 1,4-bis{3,4-bis(2-hydroxyethoxy)phenyl}-2,3-dimethyl-(2R,3S)-butane]",60 to 80,65 to 70,20 to 30,25,,
"C[C@H](Cc1ccc(OCCOCCO)c(OCCOCCO)c1)[C@@H](C)Cc1ccc(OCCOCCO)c(OCCOCCO)c1 [Compound J, 1,4-bis{3,4-bis[2-(2-hydroxyethoxy)ethoxyl]phenyl}-2,3-dimethyl-(2R,3S)-butane]",80 to 90,,,,70,"IC50 (COS-7 cells; Chlorocebus sabaeus): 80 to 90 µM; IC50 (A549 (lung carcinoma); A549, MTS assay, read-out: A549 IC50): 80 to 90 µM; IC50 ([2]; Homo sapiens, HeLa, MTS assay): > 100 µM"
"Cc1nc(COc2ccc(C[C@@H](C)[C@@H](C)Cc3ccc(OCc4csc(C)n4)c(OCc4csc(C)n4)c3)cc2OCc2csc(C)n2)cs1 [Compound F, 1,4-bis{3,4-bis(2-methyl-thiazol-4-yl-methoxy)phenyl}-2,3-dimethyl-(2R,3S)-butane tetrakis-hydrochloride salt]",,> 100,> 100,> 100,,"SEAP EC50 ([1]; COS-7 cells co-transfected with pHIVSEAP and pCTAT, 48 hours treatment): Variable; COS-7 IC50 (COS-7 cells): Variable"
"C[C@H](Cc1ccc(OCCCN2CCCCC2)c(OCCCN2CCCCC2)c1)[C@@H](C)Cc1ccc(OCCCN2CCCCC2)c(OCCCN2CCCCC2)c1.Cl.Cl.Cl.Cl [Compound B, 1,4-bis{3,4-bis[3-(piperidin-1-yl)propoxy]phenyl}-2,3-dimethyl-(2R,3S)-butane tetrakis-hydrochloride salt]",,,,,2,IC50 ([2]; MTS assay): 1 to 5 µM; DNA fragmentation [3]: Negative; IC50 (VEGF): ~2 µM and 2 µM

# Reference: US20150374709A1, “TETRA-SUBSTITUTED NDGA DERIVATIVES VIA ETHER BONDS AND CARBAMATE BONDS AND THEIR SYNTHESIS AND PHARMACEUTICAL USE” (ERIMOS PHARMACEUTICALS LLC, priority 2006, published 2015)
